Test results published in PMC7588595, “Small-molecule active pharmaceutical ingredients of approved cancer therapeutics inhibit human aspartate/asparagine-β-hydroxylase” (Bioorganic & Medicinal Chemistry, 2020).
Where a name gives a salt, the structure may show the parent alone. Read-outs that look alike come from different tables or passages of the source.

Biological target: T1, human AspH (His6-AspH315–758) (Homo sapiens, UniProt Q12797)
T1 construct: N-Terminally His6-tagged human AspH315–758 (His6-AspH315–758) was produced in Escherichia coli BL21 (DE3) cells; made in house; host or cells: Escherichia coli BL21 (DE3), pET-28a(+) vector
T1 sequence (Q12797 315-758): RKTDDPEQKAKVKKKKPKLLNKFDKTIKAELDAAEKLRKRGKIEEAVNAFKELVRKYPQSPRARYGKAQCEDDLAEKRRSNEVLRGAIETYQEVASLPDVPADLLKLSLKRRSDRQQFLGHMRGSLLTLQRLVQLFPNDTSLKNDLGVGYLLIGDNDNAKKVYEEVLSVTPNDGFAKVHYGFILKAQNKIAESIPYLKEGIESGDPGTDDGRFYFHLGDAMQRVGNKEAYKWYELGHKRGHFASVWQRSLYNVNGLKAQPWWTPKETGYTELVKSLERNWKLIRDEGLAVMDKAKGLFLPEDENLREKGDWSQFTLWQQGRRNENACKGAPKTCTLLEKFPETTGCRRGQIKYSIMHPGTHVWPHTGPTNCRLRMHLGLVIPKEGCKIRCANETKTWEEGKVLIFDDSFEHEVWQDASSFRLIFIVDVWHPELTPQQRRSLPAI
Test: SPE-MS AspH inhibition assay (hFX-CP101-119 substrate hydroxylation)
Format: biochemical

[1] = AspH-inhibitor screening, 384-well Plate 1
[2] = AspH-inhibitor screening, 384-well Plate 1, substrate conversion
[3] = AspH-inhibitor screening, Plate 1-duplicate
[4] = AspH-inhibitor screening, Plate 1-duplicate, substrate conversion
[5] = 50 nM His6-AspH315–758, 1 μM hFX-CP101–119, 100 μM LAA, 3 μM 2OG, 2 μM FAS, 50 mM HEPES pH 7.5, 20 °C, read-out: IC50
[6] = 20 μM fixed inhibitor, 50 nM His6-AspH315–758, 1 μM hFX-CP101–119, 100 μM LAA, 3 μM 2OG, 2 μM FAS, 50 mM HEPES pH 7.5, 20 °C, relative to DMSO and 2,4-PDCA controls
[7] = read-out: IC50 at 10 μM substrate, 10 μM hFX-CP101–119 and 10 μM 2OG instead of 1 μM hFX-CP101–119 and 3 μM 2OG
[8] = read-out: IC50 at 20 μM Fe(II), 20 μM Fe(II) instead of 2 μM Fe(II)
[9] = read-out: IC50 at 200 μM 2OG, 200 μM 2OG instead of 3 μM 2OG

Compound	Plate 1 (% inhibition) [1] [%]	Plate 1 (% conversion) [2] [%]	Plate 1-duplicate (% inhibition) [3] [%]	Plate 1-duplicate (% conversion) [4] [%]	other results
CN(C)CCOc1ccc(/C(=C(/CCCl)c2ccccc2)c2ccccc2)cc1 [Toremifene citrate]	75.12	15.06	75.95	14.37	
CC1=C(/C=C/C(C)=C/C=C/C(C)=C/C(=O)O)C(C)(C)CCC1 [Tretinoin]	71.19	16.88	64.04	20.28	
C1CN1c1nc(N2CC2)nc(N2CC2)n1 [Triethylenemelamine]					Plate 1 (% conversion): 46.54%; Plate 1 (% inhibition): 6.96%; Plate 1-duplicate (% conversion): 50.74%; Plate 1-duplicate (% inhibition): 2.63%
O=c1[nH]c(=O)n([C@H]2C[C@H](O)[C@@H](CO)O2)cc1C(F)(F)F [Trifluridine]	1.86	48.89	-0.91	52.49	
O=C(CCCCCCC(=O)Nc1ccc([C@H]2O[C@@H](CSc3nc(-c4ccccc4)c(-c4ccccc4)o3)C[C@@H](c3ccc(CO)cc3)O2)cc1)NO [Tubacin, reference compound]	92.77	6.91	87.89	8.45	IC50 [5]: 4.12 ± 0.5 µM; AspH inhibition at 20 μM [6]: 90.3 ± 3.5%; inhibition at 20 µM [6]: > 90%; IC50 [7]: 3.57 ± 0.1 µM; IC50 [8]: 4.91 ± 1.63 µM; IC50 [9]: 5.69 ± 0.7 µM
CN1CCc2c(c3ccccc3n2Cc2ccc(C(=O)NO)cc2)C1.Cl [Tubastatin A HCl]	-13.29	55.89	-15.22	59.59	
CN[C@@H]1C[C@H]2O[C@@](C)([C@@H]1OC)n1c3ccccc3c3c4c(c5c6ccccc6n2c5c31)C(=O)N[C@H]4O [UCN-01]	3.15	48.30	-0.80	52.44	
Oc1ncc(N(CCCl)CCCl)c(O)n1 [Uracil mustard]					Plate 1 (% conversion): 47.47%; Plate 1 (% inhibition): 4.95%; Plate 1-duplicate (% conversion): 46.70%; Plate 1-duplicate (% inhibition): 10.76%
CC(=O)OC[C@H]1O[C@@H](n2ccc(=O)[nH]c2=O)[C@H](OC(C)=O)[C@@H]1OC(C)=O [Uridine triacetate]	4.05	47.88	7.04	48.55	
N#Cc1ccc(COC[C@H]2O[C@@H](n3c(NCc4ccc(Cl)c(Cl)c4)nc4c(N)ncnc43)[C@H](O)[C@@H]2O)cc1 [VER 155008]	10.19	45.05	7.21	48.47	
CCCC(CCC)C(=O)O [Valproic acid]	16.50	42.13	5.73	49.20	
CCCCC(=O)OCC(=O)[C@]1(O)Cc2c(O)c3c(c(O)c2[C@@H](O[C@H]2C[C@H](NC(=O)C(F)(F)F)[C@H](O)[C@H](C)O2)C1)C(=O)c1c(OC)cccc1C3=O [Valrubicin]	-2.24	50.79	-16.67	60.31	
COc1cc2c(Nc3ccc(Br)cc3F)ncnc2cc1OCC1CCN(C)CC1 [Vandetanib]	-0.26	49.87	1.85	51.12	
CCc1c(C(=O)C(N)=O)c2c(OCC(=O)O)cccc2n1Cc1ccccc1 [Varespladib]	9.84	45.21	8.14	48.01	
Clc1ccc(Nc2nnc(Cc3ccncc3)c3ccccc23)cc1 [Vatalanib]	7.55	46.26	6.67	48.73	
CCCS(=O)(=O)Nc1ccc(F)c(C(=O)c2c[nH]c3ncc(-c4ccc(Cl)cc4)cc23)c1F [Vemurafenib, reference compound]		12.12		12.00	IC50 [5]: 12.9 ± 1.6 µM; remaining activity at 20 µM (20 μM fixed inhibitor concentration): ~20%; Hill coefficient of AspH inhibition curves (dose-response curves of SPE-MS AspH inhibition assay): < -2.0; IC50 [7]: 16.9 ± 4.4 µM; IC50 [8]: 10.5 ± 1.9 µM; IC50 [9]: 15.1 ± 0.2 µM
CC[C@]1(O)C[C@@H]2CN(CCc3c([nH]c4ccccc34)[C@@](C(=O)OC)(c3cc4c(cc3OC)N(C)[C@H]3[C@@](O)(C(=O)OC)[C@H](OC(C)=O)[C@]5(CC)C=CCN6CC[C@]43[C@@H]65)C2)C1 [Vinblastine sulfate]	-22.64	60.21	-30.80	67.31	
CC[C@]1(O)C[C@H]2CN(CCc3c([nH]c4ccccc34)[C@@](C(=O)OC)(c3cc4c(cc3OC)N(C=O)[C@H]3[C@@](O)(C(=O)OC)[C@H](OC(C)=O)[C@]5(CC)C=CCN6CC[C@]43[C@@H]65)C2)C1.O=S(=O)(O)O [Vincristine Sulfate (Oncovin)]	7.89	46.11	3.90	50.11	
CCC1=C[C@@H]2CN(C1)Cc1c([nH]c3ccccc13)[C@@](C(=O)OC)(c1cc3c(cc1OC)N(C)[C@H]1[C@@](O)(C(=O)OC)[C@H](OC(C)=O)[C@]4(CC)C=CCN5CC[C@]31[C@@H]54)C2 [Vinorelbine tartrate]	35.58	33.32	36.10	34.14	
CS(=O)(=O)c1ccc(C(=O)Nc2ccc(Cl)c(-c3ccccn3)c2)c(Cl)c1 [Vismodegib]	10.42	44.94	2.79	50.66	
O=C(CCCCCCC(=O)Nc1ccccc1)NO [Vorinostat]	3.50	48.13	7.67	48.24	
Oc1nc(-c2ccc(C(F)(F)F)cc2)nc2c1CSCC2 [XAV-939]	0.04	49.73	0.58	51.75	
COc1cc2nccc(Oc3ccc(NC(=O)C4(C(=O)Nc5ccc(F)cc5)CC4)cc3)c2cc1OC [XL184_Cabozantinib]	11.20	44.58	-8.84	56.43	
COc1cc2c(Oc3ccc(NC(=O)C4(C(=O)Nc5ccc(F)cc5)CC4)cc3F)ccnc2cc1OCCCN1CCOCC1 [XL880 (Foretinib)]	-64.58	79.57	-62.78	83.18	
COc1ccc(Cl)c(Nc2nc3ccccc3nc2NS(=O)(=O)c2cccc(NC(=O)C(C)(C)N)c2)c1 [XL-147]	3.96	47.92	7.32	48.41	
COCCn1c2c([n+](Cc3cnccn3)c1C)C(=O)c1ccccc1C2=O [YM155]	-27.18	62.30	-43.09	73.41	
FC(F)c1nc2ccccc2n1-c1nc(N2CCOCC2)nc(N2CCOCC2)n1 [ZSTK474]	-1.18	50.29	1.69	51.20	
O=P(O)(O)C(O)(Cn1ccnc1)P(=O)(O)O [Zoledronic acid]	19.60	40.70	13.13	45.53	
O=C(O)c1ccnc(C(=O)O)c1 [pyridine-2,4-dicarboxylic acid]					Plate 1 (% inhibition) (100 uM 2,4-PDCA controls, columns 23, 24, Plate 1): 101.14%; Plate 1-duplicate (% inhibition) (100 uM 2,4-PDCA controls, columns 23, 24, Plate 1-duplicate): 99.94%
AT 101	102.80	2.28	99.60	2.64	
